Test results from the supplement of paper PMC10883282.

Legend:
Test in all cases: relative viability vs DMSO control (72 h) (fraction); higher = more viable cells
G401 = system: G401
How it was run: (§1)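 Plates held 72 h at 37 °C and 5% CO2 contained sarcoma cell lines seeded in 384-well format to reach 80–90% confluence, plus 2.5 µl of serially diluted compound added after 24 h. Source plate concentrations ran from 10 mM to 0.0002 mM, with 0.1% DMSO as vehicle and a 5 µM positive control. Percent growth from ATPLite readings, averaged over up to triplicate wells, gave relative viability. Values were rescaled with 1 as full and 0 as none.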

SK-ES-1 = system: SK-ES-1
How it was run: as §1

SW1353 = system: SW1353
How it was run: as §1

RD-ES = system: RD-ES
How it was run: as §1

SW872 = system: SW872
How it was run: as §1

RD = system: RD
How it was run: as §1

SK-LMS-1 = system: SK-LMS-1
How it was run: as §1

VA-ES-BJ = system: VA-ES-BJ
How it was run: as §1

SW684 = system: SW684
How it was run: as §1

MES-SA = system: MES-SA
How it was run: as §1

KHOS-NP = system: KHOS-NP
How it was run: as §1

HT1080 = system: HT1080
How it was run: as §1

CC(C)NC[C@@H](C(=O)N1CCN(c2ncnc3c2[C@H](C)C[C@H]3O)CC1)c1ccc(Cl)cc1 [Ipatasertib]
Conditions | relative viability
G401, 0.00017 µM | 1.03
G401, 0.00051 µM | 1.04
G401, 0.00152 µM | 1.01
G401, 0.00457 µM | 0.956
G401, 0.01372 µM | 0.942
G401, 0.04115 µM | 0.89
G401, 0.1235 µM | 0.863
G401, 0.3704 µM | 0.786
G401, 1.111 µM | 0.707
G401, 3.333 µM | 0.655
G401, 10 µM | 0.613
HT1080, 0.00017 µM | 1.1
HT1080, 0.00051 µM | 1.08
HT1080, 0.00152 µM | 1.1
HT1080, 0.00457 µM | 1.05
HT1080, 0.01372 µM | 1.07
HT1080, 0.04115 µM | 1.04
HT1080, 0.1235 µM | 1.1
HT1080, 0.3704 µM | 1.07
HT1080, 1.111 µM | 1.055
HT1080, 3.333 µM | 0.997
HT1080, 10 µM | 0.994
KHOS-NP, 0.00017 µM | 1.1
KHOS-NP, 0.00051 µM | 1.11
KHOS-NP, 0.00152 µM | 1.11
KHOS-NP, 0.00457 µM | 1.09
KHOS-NP, 0.01372 µM | 1.06
KHOS-NP, 0.04115 µM | 1.06
KHOS-NP, 0.1235 µM | 1.067
KHOS-NP, 0.3704 µM | 1.04
KHOS-NP, 1.111 µM | 1.04
KHOS-NP, 3.333 µM | 0.994
KHOS-NP, 10 µM | 0.957
MES-SA, 0.00017 µM | 0.935
MES-SA, 0.00051 µM | 0.904
MES-SA, 0.00152 µM | 0.9385
MES-SA, 0.00457 µM | 0.905
MES-SA, 0.01372 µM | 0.8986
MES-SA, 0.04115 µM | 0.847
MES-SA, 0.1235 µM | 0.751
MES-SA, 0.3704 µM | 0.619
MES-SA, 1.111 µM | 0.467
MES-SA, 3.333 µM | 0.317
MES-SA, 10 µM | 0.24
RD, 0.00017 µM | 1.03
RD, 0.00051 µM | 1.06
RD, 0.00152 µM | 1.06
RD, 0.00457 µM | 1.05
RD, 0.01372 µM | 1.07
RD, 0.04115 µM | 1.05
RD, 0.1235 µM | 0.991
RD, 0.3704 µM | 0.916
RD, 1.111 µM | 0.799
RD, 3.333 µM | 0.681
RD, 10 µM | 0.623
RD-ES, 0.00017 µM | 0.9447
RD-ES, 0.00051 µM | 0.932
RD-ES, 0.00152 µM | 0.954
RD-ES, 0.00457 µM | 0.9221
RD-ES, 0.01372 µM | 0.925
RD-ES, 0.04115 µM | 0.869
RD-ES, 0.1235 µM | 0.844
RD-ES, 0.3704 µM | 0.7432
RD-ES, 1.111 µM | 0.601
RD-ES, 3.333 µM | 0.52
RD-ES, 10 µM | 0.4354
SK-ES-1, 0.00017 µM | 1.03
SK-ES-1, 0.00051 µM | 1.04
SK-ES-1, 0.00152 µM | 1.01
SK-ES-1, 0.00457 µM | 1
SK-ES-1, 0.01372 µM | 1.02
SK-ES-1, 0.04115 µM | 0.947
SK-ES-1, 0.1235 µM | 0.944
SK-ES-1, 0.3704 µM | 0.79
SK-ES-1, 1.111 µM | 0.683
SK-ES-1, 3.333 µM | 0.529
SK-ES-1, 10 µM | 0.473
SK-LMS-1, 0.00017 µM | 0.971
SK-LMS-1, 0.00051 µM | 0.95
SK-LMS-1, 0.00152 µM | 0.96
SK-LMS-1, 0.00457 µM | 1
SK-LMS-1, 0.01372 µM | 0.954
SK-LMS-1, 0.04115 µM | 0.959
SK-LMS-1, 0.1235 µM | 0.909
SK-LMS-1, 0.3704 µM | 0.8304
SK-LMS-1, 1.111 µM | 0.651
SK-LMS-1, 3.333 µM | 0.594
SK-LMS-1, 10 µM | 0.55
SW684, 0.00017 µM | 1.07
SW684, 0.00051 µM | 1.11
SW684, 0.00152 µM | 1.11
SW684, 0.00457 µM | 1.09
SW684, 0.01372 µM | 1.09
SW684, 0.04115 µM | 1.08
SW684, 0.1235 µM | 0.994
SW684, 0.3704 µM | 0.855
SW684, 1.111 µM | 0.664
SW684, 3.333 µM | 0.5598
SW684, 10 µM | 0.49
SW872, 0.00017 µM | 1.01
SW872, 0.00051 µM | 1.04
SW872, 0.00152 µM | 1.01
SW872, 0.00457 µM | 1.01
SW872, 0.01372 µM | 0.922
SW872, 0.04115 µM | 0.91
SW872, 0.1235 µM | 0.843
SW872, 0.3704 µM | 0.712
SW872, 1.111 µM | 0.611
SW872, 3.333 µM | 0.491
SW872, 10 µM | 0.415
SW1353, 0.00017 µM | 1.04
SW1353, 0.00051 µM | 1.05
SW1353, 0.00152 µM | 1.03
SW1353, 0.00457 µM | 1.02
SW1353, 0.01372 µM | 0.991
SW1353, 0.04115 µM | 0.93
SW1353, 0.1235 µM | 0.935
SW1353, 0.3704 µM | 0.862
SW1353, 1.111 µM | 0.864
SW1353, 3.333 µM | 0.781
SW1353, 10 µM | 0.727
VA-ES-BJ, 0.00017 µM | 1.07
VA-ES-BJ, 0.00051 µM | 1.04
VA-ES-BJ, 0.00152 µM | 1.03
VA-ES-BJ, 0.00457 µM | 1.022
VA-ES-BJ, 0.01372 µM | 0.955
VA-ES-BJ, 0.04115 µM | 0.8984
VA-ES-BJ, 0.1235 µM | 0.819
VA-ES-BJ, 0.3704 µM | 0.666
VA-ES-BJ, 1.111 µM | 0.492
VA-ES-BJ, 3.333 µM | 0.418
VA-ES-BJ, 10 µM | 0.368
